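Step 1: Grow cells in 96-well plates. Step 2: Expose to compound for 48 hours at 5 concentrations. Step 3: Interpolate endpoints linearly; if unreached, use highest concentration. At the GI50, growth is halved. TGI: concentration producing complete growth inhibition.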
Legend:
Experiment in all cases: NCI anticancer screen, dose series, 48 h
[1] = test system: DU-145 prostate
[2] = test system: MCF7 breast
[3] = test system: SF-268 CNS
[4] = test system: HL-60(TB) leukemia
[5] = test system: RPMI-8226 leukemia
[6] = test system: SK-MEL-28 melanoma
[7] = test system: SR leukemia
[8] = test system: ACHN renal
[9] = test system: 786-0 renal
[10] = test system: KM12 colon

Compound	TGI [1]	TGI [2]	TGI [3]	TGI [4]	TGI [5]	TGI [6]	TGI [7]	TGI [8]	TGI [9]	TGI [10]	GI50 [1]	GI50 [2]	GI50 [3]	GI50 [4]	GI50 [5]	GI50 [6]	GI50 [7]	GI50 [8]	GI50 [9]	GI50 [10]
O=[N+]([O-])c1ccc(/C=C\c2ccc3c(c2)OCO3)c([N+](=O)[O-])c1	47 µM	8.58 µM	58.5 µM	39 µM	19.2 µM	32.3 µM	23.6 µM	33.6 µM	> 100 µM	54 µM										
CN(C)c1ccc2c(c1)OC(N)=C(C#N)C2c1ccc2c(c1)CCCN2C (stereo not given)	> 100 µM	33.4 µM	> 100 µM	8.7 µM	31 µM	86.3 µM	16.6 µM	64.6 µM	> 100 µM	> 100 µM	3.51 µM	0.444 µM	6.85 µM	2.81 µM	4.07 µM	11 µM	0.648 µM	4.63 µM	4.33 µM	0.783 µM
CCN(CC)Cc1cc(Nc2cc(C(F)(F)F)c(C#N)c3nc4ccccc4n23)ccc1O	15.7 µM	10.7 µM	18.3 µM	8.37 µM	4.96 µM	17.4 µM	> 100 µM	10.3 µM	9.98 µM	8.22 µM	2.78 µM	1.75 µM	2.51 µM	2.96 µM	0.812 µM	2.69 µM	3.72 µM	2.24 µM	2.57 µM	2.42 µM
CC1=NN(c2nc(N)nc(/C=C\c3ccccc3)n2)C(C)(C)C1	15.5 µM	25.5 µM	24.4 µM	39.5 µM	15 µM	22.3 µM	27.8 µM	28.4 µM	29.3 µM	10.5 µM	3.16 µM	8 µM	6.1 µM	10.8 µM	3.02 µM	9.41 µM	6.12 µM	9.46 µM	15 µM	1.59 µM
O=C(/C=C/c1cccc(Oc2ccc(Cl)cc2)c1)c1ccccc1	207 µM	118 µM	209 µM	58.4 µM	61 µM	107 µM	78.7 µM	31.7 µM	43.6 µM	125 µM	69.7 µM	26.9 µM	75.5 µM	23.4 µM	25.3 µM	29.7 µM	22.9 µM	16.9 µM	19.9 µM	34.9 µM
CCc1c(C#N)c(SC(C(N)=O)c2ccccc2)nc(N2CCC(N)CC2)c1C#N (stereo not given)	31.1 µM	26.8 µM	29.2 µM	25.9 µM	34.4 µM	27.9 µM	38.1 µM	38.8 µM	28.3 µM	31.4 µM	16.9 µM	13 µM	14.2 µM	10.2 µM	13.7 µM	14.7 µM	16.2 µM	18.1 µM	14.8 µM	15.9 µM

From PubChem BioAssay (NCI)
